According to patent US20170049842A1, “FOOD ADDITIVE FOR PRODUCING FOOD FOR PREVENTING CRANIAL NERVE DISEASE AND/OR IMPROVING BRAIN FUNCTION” (FUJI OIL HOLDINGS INC., priority 2014, published 2017):
Where two headings read alike, the source gives them in different places. Peptide text beside a SMILES is read from it.

Assays:
[1] = Permeability coefficient (Papp) across Caco-2 cell monolayers in Ussing Chamber; conditions: Caco-2; for Papp A→B at 60 min, 10 mM: human
Description: (§1) The measurement of permeability coefficient, which was an index of absorbability in the intestinal tract, of ARPs was performed as follows.
(§2) Caco-2 cells were seeded in Cell culture insert at 4.0×10^5 cells/mL, and cultured for 3 days in an intestinal epithelial differentiation promoting medium. Caco-2 cell monolayers were cut and set to Ussing Chamber. Hanks' Balanced Salt Solution (HBSS) (apical membrane side: pH 6.0, basolateral membrane side: pH 7.4) was added in each Chamber. After 15 minutes preliminary heat retention (37° C., 95% O2/5% CO2 mixture gas), each ARPs aqueous solution (10 mM) was added to apical membrane side. Samples were recovered from the basolateral membrane side every 15 minutes (total 60 minutes). The recovered sample was subjected to ESI-TOF-MS (Electro Spray Ionization-Time of Flight-Mass Spectrometry) analysis to determine permeated peptide amount. Permeability coefficient (Papp) was calculated according to the following formula.
(§3) C0: concentration of added peptide (mmol/L)
(§4) dC/dt: Permeated amount of peptide per time (mmol/L·sec)
(§5) Concentration of peptide, which transitioned to the basolateral membrane side in each time, was calculated based on the area from reference standard. In addition, it was confirmed that they were not degraded to amino acids.
(§6) Permeated peptide amount per time was calculated and permeability coefficient (Papp) was calculated according to the above formula.

[2] = system: Caco-2 cell monolayers; experiment: as above; conditions: compared with the other ARPs
Description: as §1, §2, §3, §4, §5, §6

[3] = in vitro; conditions: human, Caco-2
Description: as §1, §2, §3, §4, §5, §6

[4] = system: Caco-2 cell monolayers
Description: as §1, §2, §3, §4, §5, §6

Papp A→B [1] [×10⁻⁶ cm/s] | permeability coefficient / permeation efficiency in mesenteric model cell, in words [2] | Compound | further results
0.72 ± 0.272 | relatively high permeation efficiency | N[C@@H](CO)C(=O)N[C@@H](Cc1ccc(O)cc1)C(=O)O [A, Ser-Tyr] (H-Ser-Tyr-OH; N-terminus and C-terminus assumed) | –
– | – | CC(C)C[C@H](NC(=O)[C@@H](N)Cc1ccc(O)cc1)C(=O)O [B, Tyr-Leu] (H-Tyr-Leu-OH; N-terminus and C-terminus assumed) | Papp A→B at 60 min, 10 mM [3]: 0.596 ± 0.198 ×10⁻⁶ cm/s; permeability coefficient / permeation efficiency in mesenteric model cell, in words [4]: relatively higher permeability coefficient than the other ARPs
0.885 ± 0.215 | relatively high permeation efficiency | N[C@@H](Cc1ccc(O)cc1)C(=O)N1CCC[C@H]1C(=O)O [E, Tyr-Pro] (H-Tyr-Pro-OH; N-terminus and C-terminus assumed) | –
0.044 ± 0.009 | – | NC(=O)C[C@H](NC(=O)[C@@H](N)Cc1ccc(O)cc1)C(=O)O [F, Tyr-Asn] (H-Tyr-Asn-OH; N-terminus and C-terminus assumed) | –
– | – | N[C@@H](Cc1ccccc1)C(=O)N[C@@H](Cc1ccc(O)cc1)C(=O)O [G, Phe-Tyr] (H-Phe-Tyr-OH; N-terminus and C-terminus assumed) | Papp A→B at 60 min, 10 mM [1]: 0.006 ± 0.0001 ×10⁻⁶ cm/s
2.92 ± 0.265 | relatively high permeation efficiency | CC[C@H](C)[C@H](N)C(=O)N[C@@H](Cc1ccc(O)cc1)C(=O)O [H, Ile-Tyr] (H-Ile-Tyr-OH; N-terminus and C-terminus assumed) | –
– | – | N=C(N)NCCC[C@H](NC(=O)[C@@H](N)Cc1ccc(O)cc1)C(=O)O [Peptide C, Tyr-Arg] | Papp A→B at 60 min, 10 mM [1]: 0.05 ± 0.011 ×10⁻⁶ cm/s

Compound | Papp A→B [1] [×10⁻⁶ cm/s] | permeability coefficient / permeation efficiency in mesenteric model cell, in words [2] | further results
N[C@@H](Cc1ccc(O)cc1)C(=O)N[C@@H](CO)C(=O)O [D, Tyr-Ser] (H-Tyr-Ser-OH; N-terminus and C-terminus assumed) | 0.248 ± 0.088 | relatively higher permeability coefficient than the other ARPs | –
